Values quoted from earlier work in US9464058B2 (Hoffmann-La Roche Inc., priority 2012, dated 2016).

How the values were obtained:
[1] = system: rat model of chronic kidney disease; settings: rat CKD model, cited from earlier work; for renal effects (albuminuria, azotemia, renovascular hypertrophy, glomerular injury, PAI-1 and osteopontin mRNA, tubulointerstitial fibrosis): angiotensin II and high salt
[2] = system: rats with experimental heart failure; settings: cited from earlier work
[3] = system: patients with primary aldosteronism; settings: oral; cited from earlier work

Row | SMILES | plasma aldosterone ([1]; 4 weeks of treatment) | renal effects (albuminuria, azotemia, renovascular hypertrophy, glomerular injury, PAI-1 and osteopontin mRNA, tubulointerstitial fibrosis) [1] | angiotensin II and salt-stimulated PAI-1 mRNA expression in the aorta and the heart [1] | cardiac and aortic medial hypertrophy [1] | blood pressure and cardiovascular function and structure [2] | kidney function and morphology [2] | aldosterone ([1]; at 4 and 8 weeks of treatment) | blood pressure [3] | circulating aldosterone levels [3] | hypokalemia [3]
1 | N#Cc1ccc(C2CCCc3cncn32)cc1 (stereo not shown) [FAD286] | reduced | prevented | not | attenuated | improved | improve | – | – | – | –
2 | CC(=O)S[C@@H]1CC2=CC(=O)CC[C@]2(C)[C@H]2CC[C@@]3(C)[C@@H](CC[C@@]34CCC(=O)O4)[C@H]12 [spironolactone] | – | prevented | enhanced | attenuated | – | – | increased | – | – | –
3 | N#Cc1ccc([C@H]2CCc3cncn32)c(F)c1 [LCI699] | – | – | – | – | – | – | – | mildly decreased | significantly lower | corrected
